{"source": "PubChem BioAssay AID1845203", "about": "(Molecular Pharmacology Branch, DTP, NCI, 2023)", "system": "G-401 tumor spheroids, viability % test/control", "experiment": "Anticancer human tumor G-401 cell line growth inhibition;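 for all read-outs here: spheroids exposed to compound for 7 days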;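 for viability, T/C: 100% = DMSO vehicle-treated spheroids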", "conditions": "spheroids with HUVEC and MSC; for IC50: curve of first compound; for viability, T/C: stronger effect = lower value", "procedure,_shortened": "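Complex tumor spheroids combined malignant cells with endothelial cells and mesenchymal stem cells. DNA-damaging drugs and DNA repair inhibitors were tested alone and in combination, at half-log dilutions down from clinical Cmax (top 10 microM if Cmax unknown), 0.25% DMSO final.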"}
{"molecule": "CNCc1ccc(-c2cc(-c3nc(-c4ccc(S(=O)(=O)C(C)C)cc4)cnc3N)on2)cc1", "note": "+ COc1cc2c(cc1O)CCNC21CSC2c3c(OC(C)=O)c(C)c4c(c3C(COC1=O)N1C(O)C3Cc5cc(C)c(OC)c(O)c5C(C21)N3C)OCO4", "values": [{"measurement": "IC50", "setting": "second compound 30 pM", "value": 1420, "unit": "nM"}, {"measurement": "IC50", "setting": "second compound 94.9 pM", "value": 529, "unit": "nM"}, {"measurement": "IC50", "setting": "second compound 0.0003 µM", "value": 10.3, "unit": "nM"}, {"measurement": "IC50", "setting": "second compound 0.000949 µM", "value": "< 9.49", "unit": "nM"}, {"measurement": "IC50", "setting": "second compound 0.003 µM", "value": "< 9.49", "unit": "nM"}, {"measurement": "viability, T/C", "setting": "second compound 30 pM, first compound 0.00949 µM", "value": 100, "unit": "%"}, {"measurement": "viability, T/C", "setting": "second compound 30 pM, first compound 0.03 µM", "value": 95.5, "unit": "%"}, {"measurement": "viability, T/C", "setting": "second compound 30 pM, first compound 0.0949 µM", "value": 103, "unit": "%"}, {"measurement": "viability, T/C", "setting": "second compound 30 pM, first compound 0.3 µM", "value": 88.7, "unit": "%"}, {"measurement": "viability, T/C", "setting": "second compound 30 pM, first compound 0.949 µM", "value": 58.4, "unit": "%"}, {"measurement": "viability, T/C", "setting": "second compound 30 pM, first compound 3 µM", "value": 35, "unit": "%"}, {"measurement": "viability, T/C", "setting": "second compound 94.9 pM, first compound 0.00949 µM", "value": 94.4, "unit": "%"}, {"measurement": "viability, T/C", "setting": "second compound 94.9 pM, first compound 0.03 µM", "value": 94.8, "unit": "%"}, {"measurement": "viability, T/C", "setting": "second compound 94.9 pM, first compound 0.0949 µM", "value": 89.9, "unit": "%"}, {"measurement": "viability, T/C", "setting": "second compound 94.9 pM, first compound 0.3 µM", "value": 60.5, "unit": "%"}, {"measurement": "viability, T/C", "setting": "second compound 94.9 pM, first compound 0.949 µM", "value": 39.5, "unit": "%"}, {"measurement": "viability, T/C", "setting": "second compound 94.9 pM, first compound 3 µM", "value": 25.8, "unit": "%"}, {"measurement": "viability, T/C", "setting": "second compound 0.0003 µM, first compound 0.00949 µM", "value": 48, "unit": "%"}, {"measurement": "viability, T/C", "setting": "second compound 0.0003 µM, first compound 0.03 µM", "value": 51.4, "unit": "%"}, {"measurement": "viability, T/C", "setting": "second compound 0.0003 µM, first compound 0.0949 µM", "value": 38.2, "unit": "%"}, {"measurement": "viability, T/C", "setting": "second compound 0.0003 µM, first compound 0.3 µM", "value": 25.9, "unit": "%"}, {"measurement": "viability, T/C", "setting": "second compound 0.0003 µM, first compound 0.949 µM", "value": 24.1, "unit": "%"}, {"measurement": "viability, T/C", "setting": "second compound 0.0003 µM, first compound 3 µM", "value": 18.6, "unit": "%"}, {"measurement": "viability, T/C", "setting": "second compound 0.000949 µM, first compound 0.00949 µM", "value": 9.02, "unit": "%"}, {"measurement": "viability, T/C", "setting": "second compound 0.000949 µM, first compound 0.03 µM", "value": 10.5, "unit": "%"}, {"measurement": "viability, T/C", "setting": "second compound 0.000949 µM, first compound 0.0949 µM", "value": 12.2, "unit": "%"}, {"measurement": "viability, T/C", "setting": "second compound 0.000949 µM, first compound 0.3 µM", "value": 18.3, "unit": "%"}, {"measurement": "viability, T/C", "setting": "second compound 0.000949 µM, first compound 0.949 µM", "value": 19.3, "unit": "%"}, {"measurement": "viability, T/C", "setting": "second compound 0.000949 µM, first compound 3 µM", "value": 9.87, "unit": "%"}, {"measurement": "viability, T/C", "setting": "second compound 0.003 µM, first compound 0.00949 µM", "value": 0.14, "unit": "%"}, {"measurement": "viability, T/C", "setting": "second compound 0.003 µM, first compound 0.03 µM", "value": 0.14, "unit": "%"}, {"measurement": "viability, T/C", "setting": "second compound 0.003 µM, first compound 0.0949 µM", "value": 0.22, "unit": "%"}, {"measurement": "viability, T/C", "setting": "second compound 0.003 µM, first compound 0.3 µM", "value": 0.29, "unit": "%"}, {"measurement": "viability, T/C", "setting": "second compound 0.003 µM, first compound 0.949 µM", "value": 0.89, "unit": "%"}, {"measurement": "viability, T/C", "setting": "second compound 0.003 µM, first compound 3 µM", "value": 0.21, "unit": "%"}]}
